Measurements published in patent publication US11576915B2, “Method for treating pulmonary arterial hypertension and associated pulmonary arterial hypertension and daily dosing” (Altavant Sciences GmbH, priority 2019, dated 2023).
Values belong to the compound of their own block, whether it stands above or below them.

Key:
[1] = Example 3 healthy subjects QD vs BID: KAR5417 plasma levels; format: in vivo, human
Description: (§1) 24 healthy subjects received 800 mg total daily oral doses of RVT-1201 or placebo (PBO), either as single (800 mg QD) or divided (400 mg BID) doses for 14 days across two cohorts (9 active: 3 PBO per cohort). KAR5417 plasma levels and change from Baseline (BSL) PD biomarker data (plasma and urine 5-HIAA) were compared between QD and BID cohorts at day 14. Safety and tolerability were assessed via adverse event (AE) monitoring and laboratory, vital signs and ECG assessments.

serotonin biosynthesis [2] = experiment: Example 3 healthy subjects QD vs BID: plasma and urine 5-HIAA; format: in vivo, human; conditions: day 14, change from baseline
Description: as §1

PAH [3] = experiment: monocrotaline prevention model of PAH; format: in vivo; conditions: rat, oral 100 mg/kg/day
serotonin biosynthesis [4] = experiment: rat serotonin biomarkers (serum serotonin, urinary 5-HIAA); format: in vivo; conditions: 30 to 300 mg/kg/day, dose-dependent
Description: RVT-1201 (30 to 300 mg/kg/day) may yield a dose-dependent reduction in rat serum serotonin (−27% to −96%) and 24 h urinary output of 5-HIAA (−45% to −56%). HIAA is a metabolite that reflects total serotonin biosynthesis.

[5] = Example 2 healthy human subjects: safety and tolerability; format: in vivo; conditions: doses required to achieve clinically-relevant AUC
Description: (§2) Healthy human subjects (n=˜120) may receive RVT-1201.
(§3) Mean change in plasma 5-HIAA may be about −53% from Day 1 to Day 14, whereas placebo may be about +26%. Interpolation of KAR5417 AUC between 400 mg and 800 mg BID regimens may show 500-600 mg BID in humans will achieve the target exposure associated with efficacy in rat models.

serotonin biosynthesis [6] = experiment: Example 2 healthy human subjects: plasma 5-HIAA; format: in vivo; conditions: 400 mg BID, Day 1 to Day 14
Description: as §3

PAH [7] = experiment: SUGEN-hypoxia treatment model for established PAH; format: in vivo; conditions: rat, oral 100 mg/kg/day
[8] = Example 2 healthy human subjects: pharmacokinetics; format: in vivo
Description: as §2, §3

PAH [9] = experiment: PAH rodent models (Example 3 background); format: in vivo, rat
Description: (§4) TPH1 is the rate-limiting enzyme for peripheral biosynthesis of serotonin (5HT), which has been implicated as a causative factor in PAH. RVT-1201 decreased pulmonary vessel wall thickness in 2 PAH rodent models indicating potential to halt/reverse pulmonary remodeling in humans. The median effective dose (100 mg/kg QD) in PAH rat models yielded a ˜35% reduction in 5-HT biosynthesis (based on urinary 5-HIAA, a metabolite of 5HT). […] The example compares reductions in 5-HIAA levels following QD and BID dosing in healthy subjects.

[10] = Example 3 healthy subjects QD vs BID: safety and tolerability; format: in vivo, human
Description: as §1

serotonin biomarkers = experiment: divided dose pharmacodynamic studies in rats (QD vs BID vs TID); format: in vivo, rat
Description: as §4

[11] = polymorph stability and shelf life; format: physicochemical; conditions: particularly at temperatures of less than 95° C.
Source text: The above-referenced compound can be used to prevent or treat PAH/APAH in either an amorphous or crystalline form. Two different polymorph crystalline forms are identified by x-ray powder diffraction patterns set forth in FIG. 1 (Form 3) and FIG. 2 (Form 1) as well as Tables 1 and 2 (Form 3) and Tables 3 and 4 (Form 1).

KAR5417 mean pAUC0-24 ([1]; RVT-1201 400 mg BID oral, day 14): 10400 ng*h/mL
AUC(0-t) ([1]; human, plasma, RVT-1201 800 mg QD oral, day 14, read-out: KAR5417 mean AUC0-24): 9180 ng·h/mL
SMILES: Nc1nc(O[C@H](c2ccc(Cl)cc2-c2ccccc2)C(F)(F)F)cc(N2CCC3(CC2)CN[C@H](C(=O)O)C3)n1 [KAR5417, (S)-8-(2-amino-6-((R)-1-(5-chloro-[1,1′-biphenyl]-2-yl)-2,2,2-trifluoroeth-oxy)pyrimidin-4-yl)-2,8-diazaspiro[4.5]decane-3-carboxylic acid]

SMILES: CCOC(=O)[C@@H]1CC2(CCN(c3cc(O[C@H](c4ccc(Cl)cc4-c4ccccc4)C(F)(F)F)nc(N)n3)CC2)CN1 [RVT-1201, (S)-ethyl 8-(2-amino-6-((R)-1-(5-chloro-[1,1′-biphenyl]-2-yl)-2,2,2-trifluoroethoxy)pyrimidin-4-yl)-2,8-diazaspiro[4.5]decane-3-carboxylate]
mean (±SD) reduction in plasma 5-HIAA (serotonin biosynthesis [2]; 400 mg BID): 49.9 (9.52) %
mean (±SD) reduction in urinary 5-HIAA (serotonin biosynthesis [2]; 400 mg BID): 55.5 (10.3) %
mean (±SD) reduction in plasma 5-HIAA (serotonin biosynthesis [2]; 800 mg QD): 40.0 (6.32) %
mean (±SD) reduction in urinary 5-HIAA (serotonin biosynthesis [2]; 800 mg QD): 45.8 (6.59) %
block or ameliorate PAH (PAH [3]): may block or ameliorate PAH
reduction in 24 h urinary output of 5-HIAA (serotonin biosynthesis [4]): −45% to −56%
reduction in rat serum serotonin (serotonin biosynthesis [4]): −27% to −96%
tolerability [5]: well tolerated
mean change in plasma 5-HIAA (serotonin biosynthesis [6]): about −53%
block or ameliorate PAH (PAH [7]): may block or ameliorate PAH
human dose achieving target exposure associated with efficacy in rat models ([8]; BID, interpolation of KAR5417 AUC between 400 mg and 800 mg BID regimens): 500 to 600 mg
AUC following single doses versus dose ([8]; healthy human subjects, standard meals, single doses 200 to −1200 mg): proportional to dose
pulmonary vessel wall thickness (PAH [9]; 2 PAH rodent models): decreased
median effective dose (PAH [9]; PAH rat models, QD): 100 mg/kg
reduction in 5-HT biosynthesis (based on urinary 5-HIAA) (PAH [9]; PAH rat models, at median effective dose 100 mg/kg QD): ~35%
overall incidence of GI-related AEs ([10]; QD group (800 mg QD), 14 days): 78%
tolerability ([10]; both dose regimens (800 mg QD, 400 mg BID), 14 days): generally well-tolerated
overall incidence of GI-related AEs ([10]; divided dose group (400 mg BID), 14 days): 33%
treatment-related withdrawals ([10]; either cohort): no treatment-related withdrawals
QD dosing versus more frequent dosing, lowering of 5-HT (serotonin biomarkers; healthy rats, QD vs BID vs TID): as effective as more frequent dosing
once daily administration versus BID or TID regimens (serotonin biomarkers; rats, 75 mg/kg/day): comparable to BID or TID regimens
serotonin reduction (serotonin biomarkers; rats, 75 mg/kg/day, divided dose studies): ~65%

SMILES: CCOC(=O)[C@@H]1CC2(CCN(c3cc(O[C@H](c4ccc(Cl)cc4-c4ccccc4)C(F)(F)F)nc(N)n3)CC2)CN1 [crystalline Form 3, (S)-ethyl 8-(2-amino-6-((R)-1-(5-chloro-[1,1′-biphenyl]-2-yl)-2,2,2-trifluoroethoxy)pyrimidin-4-yl)-2,8-diazaspiro[4.5]decane-3-carboxylate]
stability and shelf life compared to crystalline Form 1 [11]: substantially greater stability and shelf life
